# Results: PubChem BioAssay AID1963424 (Molecular Pharmacology Branch, DTP, NCI, 2024)
# pIC50: −log10 of the molar value.
# System: 327498-153-R-J2-PDC complex spheroid growth, % test/control
# Assay: Anticancer human tumor 327498-153-R-J2-PDC patient-derived uterine carcinosarcoma cell line growth inhibition [Asc]
# Details: for pIC50: curve of first compound; for viability, T/C: stronger effect = lower value
# Outline: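 Spheroid model: tumor line + HUVEC + hMSC. Single agents and combinations; top conc. at/near clinical Cmax (10 microM if undetermined), half-log dilutions. DMSO stocks at 800-fold test concentration.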
# [1] = second compound 0.1 µM, first compound 0.00316 µM
# [2] = second compound 0.1 µM, first compound 0.01 µM
# [3] = second compound 0.1 µM, first compound 0.0316 µM
# [4] = second compound 0.1 µM, first compound 0.1 µM
# [5] = second compound 0.1 µM, first compound 0.316 µM
# [6] = second compound 0.1 µM, first compound 1 µM
# [7] = second compound 0.316 µM, first compound 0.00316 µM
# [8] = second compound 0.316 µM, first compound 0.01 µM
# [9] = second compound 0.316 µM, first compound 0.0316 µM
# [10] = second compound 0.316 µM, first compound 0.1 µM
# [11] = second compound 0.316 µM, first compound 0.316 µM
# [12] = second compound 0.316 µM, first compound 1 µM
# [13] = second compound 1 µM, first compound 0.00316 µM
# [14] = second compound 1 µM, first compound 0.01 µM
# [15] = second compound 1 µM, first compound 0.0316 µM
# [16] = second compound 1 µM, first compound 0.1 µM
# [17] = second compound 1 µM, first compound 0.316 µM
# [18] = second compound 1 µM, first compound 1 µM
# [19] = second compound 3.16 µM, first compound 0.00316 µM
# [20] = second compound 3.16 µM, first compound 0.01 µM
# [21] = second compound 3.16 µM, first compound 0.0316 µM
# [22] = second compound 3.16 µM, first compound 0.1 µM
# [23] = second compound 3.16 µM, first compound 0.316 µM
# [24] = second compound 3.16 µM, first compound 1 µM
# [25] = second compound 10 µM, first compound 0.00316 µM
# [26] = second compound 10 µM, first compound 0.01 µM
# [27] = second compound 10 µM, first compound 0.0316 µM
# [28] = second compound 10 µM, first compound 0.1 µM
# [29] = second compound 10 µM, first compound 0.316 µM
# [30] = second compound 10 µM, first compound 1 µM
# 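Note: spheroids exposed to compound for 7 days after 3 days of growth.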
# 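Throughout, for viability, T/C: 100% = DMSO vehicle control wells.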
pIC50 (second compound 0.1 µM),pIC50 (second compound 0.316 µM),pIC50 (second compound 1 µM),pIC50 (second compound 3.16 µM),pIC50 (second compound 10 µM),Structure (SMILES),"viability, T/C [1] [%]","viability, T/C [2] [%]","viability, T/C [3] [%]","viability, T/C [4] [%]","viability, T/C [5] [%]","viability, T/C [6] [%]","viability, T/C [7] [%]","viability, T/C [9] [%]","viability, T/C [10] [%]","viability, T/C [15] [%]","viability, T/C [16] [%]","viability, T/C [21] [%]","viability, T/C [22] [%]","viability, T/C [27] [%]","viability, T/C [28] [%]",also measured
< 6.00,< 6.00,< 6.00,< 6.00,< 6.00,CCN1CCN(Cc2ccc(Nc3ncc(F)c(-c4cc(F)c5nc(C)n(C(C)C)c5c4)n3)nc2)CC1 + Cc1c(S(C)(=O)=O)c(-c2cc(F)cc(N3CCN(c4ccc(NS(=O)(=O)c5ccc(NC(CCN6CCC(C(=O)OCCCP(=O)(O)O)CC6)CSc6ccccc6)c(S(=O)(=O)C(F)(F)F)c5)cc4)CC3)c2)c(-c2ccc(Cl)cc2)n1C(C)C,101,94.9,76.3,64.1,64.5,67.8,94.7,78.2,63.9,85.9,65.7,72.1,55.8,145,105,"viability, T/C [8]: 95.2%; viability, T/C [11]: 49.7%; viability, T/C [12]: 55.8%; viability, T/C [13]: 95.3%; viability, T/C [14]: 93%; viability, T/C [17]: 56.9%; viability, T/C [18]: 57.2%; viability, T/C [19]: 105%; viability, T/C [20]: 94.7%; viability, T/C [23]: 62.3%; viability, T/C [24]: 49.5%; viability, T/C [25]: 184%; viability, T/C [26]: 172%; viability, T/C [29]: 96%; viability, T/C [30]: 79.4%"
7.96,7.94,8.13,8.09,7.99,Cn1ncnc1[C@H]1c2n[nH]c(=O)c3cc(F)cc(c23)N[C@@H]1c1ccc(F)cc1 + Cc1c(S(C)(=O)=O)c(-c2cc(F)cc(N3CCN(c4ccc(NS(=O)(=O)c5ccc(NC(CCN6CCC(C(=O)OCCCP(=O)(O)O)CC6)CSc6ccccc6)c(S(=O)(=O)C(F)(F)F)c5)cc4)CC3)c2)c(-c2ccc(Cl)cc2)n1C(C)C,89.5,51.4,19.3,7.05,,,86.9,14.9,6.5,15.3,5.39,14.9,4.76,18.2,5.74,"viability, T/C (second compound 0.1 µM, first compound 0.000316 µM): 103%; viability, T/C (second compound 0.1 µM, first compound 0.001 µM): 97.1%; viability, T/C (second compound 0.316 µM, first compound 0.000316 µM): 92.6%; viability, T/C (second compound 0.316 µM, first compound 0.001 µM): 84.5%; viability, T/C [8]: 54%; viability, T/C (second compound 1 µM, first compound 0.000316 µM): 99.3%; viability, T/C (second compound 1 µM, first compound 0.001 µM): 104%; viability, T/C [13]: 81.7%; viability, T/C [14]: 37.7%; viability, T/C (second compound 3.16 µM, first compound 0.000316 µM): 92.7%; viability, T/C (second compound 3.16 µM, first compound 0.001 µM): 91.6%; viability, T/C [19]: 80.3%; viability, T/C [20]: 42.2%; viability, T/C (second compound 10 µM, first compound 0.000316 µM): 174%; viability, T/C (second compound 10 µM, first compound 0.001 µM): 178%; viability, T/C [25]: 150%; viability, T/C [26]: 50.1%"
5.43,5.60,5.60,5.60,5.50,O=C(c1cc(Cc2n[nH]c(=O)c3ccccc23)ccc1F)N1CCN(C(=O)C2CC2)CC1 + Cc1c(S(C)(=O)=O)c(-c2cc(F)cc(N3CCN(c4ccc(NS(=O)(=O)c5ccc(NC(CCN6CCC(C(=O)OCCCP(=O)(O)O)CC6)CSc6ccccc6)c(S(=O)(=O)C(F)(F)F)c5)cc4)CC3)c2)c(-c2ccc(Cl)cc2)n1C(C)C,,,103,102,88.6,88.1,,85.4,89.2,94.5,102,94,89.5,164,164,"viability, T/C (second compound 0.1 µM, first compound 3.16 µM): 55.5%; viability, T/C (second compound 0.1 µM, first compound 10 µM): 9.69%; viability, T/C [11]: 86.4%; viability, T/C [12]: 75.4%; viability, T/C (second compound 0.316 µM, first compound 3.16 µM): 43.9%; viability, T/C (second compound 0.316 µM, first compound 10 µM): 7.08%; viability, T/C [17]: 86.9%; viability, T/C [18]: 76.9%; viability, T/C (second compound 1 µM, first compound 3.16 µM): 43%; viability, T/C (second compound 1 µM, first compound 10 µM): 6.29%; viability, T/C [23]: 86%; viability, T/C [24]: 76%; viability, T/C (second compound 3.16 µM, first compound 3.16 µM): 43.2%; viability, T/C (second compound 3.16 µM, first compound 10 µM): 4.54%; viability, T/C [29]: 157%; viability, T/C [30]: 112%; viability, T/C (second compound 10 µM, first compound 3.16 µM): 49.1%; viability, T/C (second compound 10 µM, first compound 10 µM): 6.96%"
6.56,6.67,6.71,6.84,6.34,O=C(c1ccc(F)c(F)c1Nc1ccc(I)cc1F)N1CC(O)([C@@H]2CCCCN2)C1 + Cc1c(S(C)(=O)=O)c(-c2cc(F)cc(N3CCN(c4ccc(NS(=O)(=O)c5ccc(NC(CCN6CCC(C(=O)OCCCP(=O)(O)O)CC6)CSc6ccccc6)c(S(=O)(=O)C(F)(F)F)c5)cc4)CC3)c2)c(-c2ccc(Cl)cc2)n1C(C)C,92.1,96.2,81.7,67.3,49,18.4,91.5,76.9,62.9,74.5,58.7,75.1,56.4,131,97.9,"viability, T/C [8]: 80.4%; viability, T/C [11]: 44.1%; viability, T/C [12]: 14.6%; viability, T/C [13]: 98.6%; viability, T/C [14]: 80.6%; viability, T/C [17]: 49%; viability, T/C [18]: 12.9%; viability, T/C [19]: 91.5%; viability, T/C [20]: 84.9%; viability, T/C [23]: 35.9%; viability, T/C [24]: 15.4%; viability, T/C [25]: 170%; viability, T/C [26]: 167%; viability, T/C [29]: 70.8%; viability, T/C [30]: 17.1%"
